Reference: patent publication US20230301925A1, “PHOSPHOLIPID PRESENTING PARTICLES FOR CELL TARGETING IN THERAPY AND DIAGNOSTICS” (UNIVERSITY OF SOUTH CAROLINA, priority 2022, published 2023)

Tested on: BMDMs
Assay: UNC2025 with PS:PLG particle treatment of LPS-inflamed primary macrophages
Assay type: cell-based, mice
Conditions: LPS 1 ng/mL, PS:PLG 1:10 cell to particle ratio
Procedure: FIG. 10 depicts TNF-α secreted by BMDMs pre-treated with UNC2025 followed by a co-treatment with LPS (1 ng/mL) and PS:PLG (1:10 cell to particle ratio).
FIG. 11 depicts IL-6 secreted by BMDMs pre-treated with UNC2025 followed by a co-treatment with LPS (1 ng/mL) and PS:PLG (1:10 cell to particle ratio).
FIG. 12 depicts IL-10 secreted by BMDMs pre-treated with UNC2025 followed by a co-treatment with LPS (1 ng/mL) and PS:PLG (1:10 cell to particle ratio).
This effect is not limited to UNC2025 but applicable to a broad range of bioactive molecules including small molecules, nucleic acids, peptides, lipids, glycans, etcetera.

Structure (SMILES): CCCCNc1ncc2c(-c3ccc(CN4CCN(C)CC4)cc3)cn([C@H]3CC[C@H](O)CC3)c2n1 [UNC2025]
- anti-inflammatory response of PS:PLG particle treatment with co-delivery of small molecule (TNF-α, IL-6, IL-10): synergistically enhanced
